Data taken from PubChem BioAssay AID2060325 (Molecular Pharmacology Branch, DTP, NCI, 2025).
pIC50: −log10 of the molar value. “And” between values parts separate entries of the source, which are not always exact repeats. Equal entries are not always repeated. Blank lines part the entries; values can stand above or below the molecule they belong to.

Tested on: SK-OV-3 multi-cell spheroids, viability
Experiment: Anticancer human tumor SK-OV-3 cell line growth inhibition [IpAb];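 for viability, T/C: viability read after seven days of drug exposure; percent of DMSO vehicle control luminescence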
Conditions: for viability, T/C: stronger effect = lower value
Text: Combinatorial screen of targeted agents with ipatasertib and abemaciclib in multi-cell type tumor spheroids
A high-throughput screen of multi-cell type tumor spheroids was designed to identify active combinations of targeted small molecules and ipatasertib or abemaciclib. Complex spheroids include a stromal component modeled by human endothelial cells (HUVEC) and fibroblasts modeled by human mesenchymal stem cells (MSCs). The concentration ranges selected for each drug and investigational agent were based upon clinically achievable concentrations if the clinical Cmax of the agent was known.
Compounds. The drugs and investigational agents: ipatasertib (NSC767898), abemaciclib(NSC768073), selumetinib (NSC741078), trametinib (758246), adavosertib (NSC754352), everolimus (NSC733504), sapanisertib (NSC764658), vemurafenib (NSC761431), venetoclax (NSC766270), copanlisib (NSC809693), apelisib (NSC765974), palbociblib (NSC758247), vemurafenib (NSC761431), dabrafenib (NSC764134), ravoxertinib (NSC781343), BMS-387032 (NSC767048), sotorasib (NSC818433), talazoparib (NSC767125) and afursertib (NSC778305), were obtained from the National Cancer Institute (NCI) Developmental Therapeutics Program Chemical Repository. The FDA-approved anticancer drug set is available from the NCI Developmental Therapeutics Program. […] The stock solutions were prepared in dimethyl sulfoxide (DMSO, Sigma-Aldrich, St. Louis, MO, cat. D2650) at 800-fold the tested concentration and stored at -70 degrees C prior to their use. All drugs and investigational agents were tested over a range starting from a high concentration at or near the clinical Cmax and decreasing in half-log increments. If the clinical Cmax for an agent had not been determined, the highest concentration tested was 10 microM.
NCI60 Cell Culture. NCI60 cell lines were obtained from the NCI Developmental Therapeutics Program Tumor Repository. For each lot of cells, the Repository performed Applied Biosystems AmpFLSTR Identifiler testing with PCR amplification to confirm consistency with the published Identifier STR profile for each cell line. Cells were kept in continuous culture for no more than 20 passages. The optimal seeding densities for each of the cell lines at each time point assessed were determined prior to performing the concentration response studies. Briefly, the NCI60 human tumor lines were grown as monolayers in RPMI 1640 medium supplemented with 10% FBS and 2 mmol/L L-glutamine.
An additional 9 lines were from the NCI60 cell line panel including MDA-MB-231 breast carcinoma, MDA-MB-468 breast carcinoma, MCF7 breast carcinoma, Hs578T breast carcinoma, MALME-3M melanoma, SK-MEL-2 melanoma, SK-OV-3 ovarian carcinoma, DU-145 prostate carcinoma, PC-3 prostate carcinoma, all cell lines along with major genetic alterations are listed on Table 2. Pooled donor human umbilical vein endothelial cells (HUVEC, Lonza, cat. CC-2519) and human mesenchymal stem cells (hMSC, Lonza, cat. PT-2501) were purchased from Lonza (Walkersville, MD).
PDMR cell lines were grown in complete medium (DC medium): Dulbecco's modified Eagle's medium (DMEM)/F12 supplemented with 5% fetal bovine serum (FBS), 2 mM L-glutamine, 100 U/mL penicillin and 100 µg/ml streptomycin, 0.4 µg/ml hydrocortisone, 10 ng/ml epidermal growth factor (EGF) recombinant human protein, 24 µg/mL adenine, and 0.1 mg/mL primocin. During culture from frozen stock vials, PDMR cells were cultured in the same medium containing 10 µM Y-27632 (see Table 3). The PDCs were cultured in complete DMEM/F12 media without 10 microM Y-27632 dihydrochloride for at least two passages prior to the screen. The pooled donor HUVEC and hMSC were cultured in endothelial cell growth medium 2 (PromoCell, Heidelberg, Germany, cat. C-22011) and mesenchymal stem cell growth medium 2 (PromoCell, cat. C-28009), respectively. For all experiments, HUVEC and hMSC were used at passages </=5.
[…]

Structure (SMILES): Cc1nc(NC(=O)N2CCCC2C(N)=O)sc1-c1ccnc(C(C)(C)C(F)(F)F)c1 (stereo not given)
viability, T/C (compound 0.0316 µM): 91.9% and 91.3%
viability, T/C (compound 0.1 µM): 78.5% and 80.2%
viability, T/C (compound 0.316 µM): 47.3% and 49%
viability, T/C (compound 1 µM): 20.7% and 26.9%
viability, T/C (compound 3.16 µM): 10.9% and 10.7%
viability, T/C (compound 10 µM): 5.21% and 4.93%
pIC50 (curve of compound): 6.54 and 6.47

Structure (SMILES): Cn1ncnc1[C@H]1c2n[nH]c(=O)c3cc(F)cc(c23)N[C@@H]1c1ccc(F)cc1
viability, T/C (compound 0.000316 µM): 108% and 97.8%
viability, T/C (compound 0.001 µM): 101% and 102%
viability, T/C (compound 0.00316 µM): 101% and 98.3%
viability, T/C (compound 0.01 µM): 98.5% and 88.4%
viability, T/C (compound 0.0316 µM): 87.8% and 86.8%
viability, T/C (compound 0.1 µM): 73.5% and 68.5%
pIC50 (curve of compound): < 7.00

Structure (SMILES): Cn1cnc2c(F)c(Nc3ccc(Br)cc3Cl)c(C(=O)NOCCO)cc21 + CC(C)NCC(C(=O)N1CCN(c2ncnc3c2C(C)CC3O)CC1)c1ccc(Cl)cc1
pIC50 (curve of first compound, second compound 0.1 µM): 6.79
pIC50 (curve of first compound, second compound 0.316 µM): > 8.02
pIC50 (curve of first compound, second compound 1 µM): > 8.02
pIC50 (curve of first compound, second compound 3.16 µM): > 8.02
pIC50 (curve of first compound, second compound 10 µM): > 8.02
viability, T/C (second compound 0.1 µM, first compound 0.00949 µM): 61.9%
viability, T/C (second compound 0.1 µM, first compound 0.03 µM): 62%
viability, T/C (second compound 0.1 µM, first compound 0.0949 µM): 49.1%
viability, T/C (second compound 0.1 µM, first compound 0.3 µM): 48%
viability, T/C (second compound 0.1 µM, first compound 0.949 µM): 35.8%
viability, T/C (second compound 0.1 µM, first compound 3 µM): 19.7%
viability, T/C (second compound 0.316 µM, first compound 0.00949 µM): 33.9%
viability, T/C (second compound 0.316 µM, first compound 0.03 µM): 30.4%
viability, T/C (second compound 0.316 µM, first compound 0.0949 µM): 25.8%
viability, T/C (second compound 0.316 µM, first compound 0.3 µM): 21.6%
viability, T/C (second compound 0.316 µM, first compound 0.949 µM): 18.6%
viability, T/C (second compound 0.316 µM, first compound 3 µM): 10.3%
viability, T/C (second compound 1 µM, first compound 0.00949 µM): 19.6%
viability, T/C (second compound 1 µM, first compound 0.03 µM): 16.7%
viability, T/C (second compound 1 µM, first compound 0.0949 µM): 15.2%
viability, T/C (second compound 1 µM, first compound 0.3 µM): 11.8%
viability, T/C (second compound 1 µM, first compound 0.949 µM): 9.36%
viability, T/C (second compound 1 µM, first compound 3 µM): 4.86%
viability, T/C (second compound 3.16 µM, first compound 0.00949 µM): 13.5%
viability, T/C (second compound 3.16 µM, first compound 0.03 µM): 11.4%
viability, T/C (second compound 3.16 µM, first compound 0.0949 µM): 9.44%
viability, T/C (second compound 3.16 µM, first compound 0.3 µM): 9.1%
viability, T/C (second compound 3.16 µM, first compound 0.949 µM): 6.43%
viability, T/C (second compound 3.16 µM, first compound 3 µM): 3.45%
viability, T/C (second compound 10 µM, first compound 0.00949 µM): 6.91%
viability, T/C (second compound 10 µM, first compound 0.03 µM): 7.44%
viability, T/C (second compound 10 µM, first compound 0.0949 µM): 7.64%
viability, T/C (second compound 10 µM, first compound 0.3 µM): 5.26%
viability, T/C (second compound 10 µM, first compound 0.949 µM): 4.92%
viability, T/C (second compound 10 µM, first compound 3 µM): 2.28%

Continued, in another order:

pIC50 (curve of compound): 5.68 and 5.73
Structure (SMILES): Cn1cnc2c(F)c(Nc3ccc(Br)cc3Cl)c(C(=O)NOCCO)cc21
viability, T/C (compound 0.00949 µM): 96% and 97.7%
viability, T/C (compound 0.03 µM): 106% and 99.9%
viability, T/C (compound 0.0949 µM): 98% and 112%
viability, T/C (compound 0.3 µM): 104% and 108%
viability, T/C (compound 0.949 µM): 73.2% and 80.4%
viability, T/C (compound 3 µM): 39.5% and 29.2%

pIC50 (curve of compound): 6.97 and 7.02
Structure (SMILES): Cn1ncc(Cl)c1-c1cc(C(=O)NC(CN)Cc2cccc(F)c2)sc1Cl (stereo not given)
viability, T/C (compound 0.0316 µM): 73.4% and 80.3%
viability, T/C (compound 0.1 µM): 52.8% and 48.3%
viability, T/C (compound 0.316 µM): 27.5% and 26.4%
viability, T/C (compound 1 µM): 16.1% and 19%
viability, T/C (compound 3.16 µM): 8.76% and 8.97%
viability, T/C (compound 10 µM): 0.31% and 1.17%

pIC50 (curve of compound): < 5.00 and 5.01
Structure (SMILES): Cn1nccc1Nc1nccc(-c2ccn(C(CO)c3ccc(Cl)c(F)c3)c(=O)c2)n1 (stereo not given)
viability, T/C (compound 0.0316 µM): 101% and 98.5%
viability, T/C (compound 0.1 µM): 103% and 108%
viability, T/C (compound 0.316 µM): 108% and 116%
viability, T/C (compound 1 µM): 126%
viability, T/C (compound 3.16 µM): 94.8% and 100%
viability, T/C (compound 10 µM): 52.2% and 48.9%
